Test results as given in patent publication US8263638B2, “Dosing regimens for ion channel modulating compounds” (priority 2004, dated 2012).

Experiments:
[1] = tested on: atrial fibrillation (AF duration 3 hr-7 days; 8-45 days); experiment: Effect of age, gender and prior rate control medications on conversion of AF to SR (Example 4); assay type: in vivo, human; conditions: for Number of Pts Converted to Sinus Rhythm / Pts (%) Converted to Sinus Rhythm: AF Duration 3 hr-7 days
Protocol: Patients (pts) were block randomized in a double-blind, controlled study in a 2:1 ratio to receive COMPOUND A or placebo, stratified by AF duration (3 hr-7 days; 8-45 days). COMPOUND A (3 mg/kg), or similar appearing placebo, were infused over 10-min, followed by a second infusion if AF was not terminated (2 mg/kg or placebo). The proportion of pts with AF duration 3 hr-7 days who had treatment-induced conversion to SR within 90 min was the primary endpoint. Logistic regression was used to examine the effect of age (<65 vs ≧65), gender, and a prior use of rate control medications (beta blockers, calcium antagonists, digoxin).

[2] = tested on: Human Cardiac Electrophysiology; experiment: Electrophysiological effects of two intravenous doses in patients (Example 1); assay type: in vivo; design: AH interval / HV interval / VERP / AERP / QT / QRS / Atrial MAP50: unit not given here; conditions: for Diastolic BP / HEART RATE / Systolic BP: T = 45 min
Protocol: This example provides the results of a study conducted to determine the electrophysiological effects of two intravenous doses of COMPOUND A. Patients in the study required electrophysiologic studies (with or without radiofrequency ablation) and were from 18 to 75 years of age. Following the study and ablation (if applicable), the atrial MAP catheter was positioned and the following electrophysiological measures were performed: • 1. Intervals reflecting conduction: […] Intervals reflecting repolarization/refractoriness: • a). […] Heart rate, brachial (cuff) blood pressure. Drug Administration: • 1. […] Twenty five minutes after the start of intravenous drug infusion (15 minutes after the end of loading and start of maintenance infusion), all electrophysiological measures were repeated.

[3] = COMPOUND A plasma concentrations in acute AF study (Example 2); assay type: in vivo, human
Protocol: A Holter rhythm strip continuously monitored ECG, vital signs (blood pressure and heart rate, BP and HR, respectively) and O2 saturation were recorded every 2 min from the start of infusion to 5 min after, as well as at 15, 30, 60, 120, 240, 360, and 480 min and at discharge and one-week follow-up. Twelve-lead ECGs were obtained before dosing and every minute during infusion to 5 min after, as well as at 15, 30, 60, 120, 240, 360, and 480 min and at discharge, 24 h and one-week follow-up, and at the time of arrhythmia termination or significant rhythm changes. Venous blood samples were drawn for COMPOUND A plasma concentrations at 0, 15, 30, 120, 240, 480 min discharge and at AF termination or significant adverse events.
COMPOUND A doses were infused over 10 min as indicated in the text. Initially a 2 mg/kg infusion was given and if required an additional 3 mg/kg was infused 30 min later in the RSD-2 group. Time is shown relative to the end of the first infusion (T1).

[4] = 30 days following drug administration
[5] = patients that received only the 2 mg/kg infusion

COc1ccc(CCO[C@@H]2CCCC[C@H]2N2CC[C@@H](O)C2)cc1OC.Cl [COMPOUND A, (1R,2R)-2-[(3R)-hydroxypyrrolidinyl]-1-(3,4-dimethoxyphenethoxy)cyclohexane monohydrochloride]
median time to conversion ([1]; 3 hr-7 day group (n=75)): 11 min | pts with serious adverse events (%) [1, 4]: 13% | pts with serious adverse events (number) [1, 4]: 29 | Number of Pts Converted to Sinus Rhythm ([1]; Men): 53 | Pts (%) Converted to Sinus Rhythm ([1]; Men): 52% | Number of Pts Converted to Sinus Rhythm ([1]; No Prior Rate Control Drugs): 19 | Pts (%) Converted to Sinus Rhythm ([1]; No Prior Rate Control Drugs): 53% | Number of Pts Converted to Sinus Rhythm ([1]; Prior Rate Control Drugs): 56 | Pts (%) Converted to Sinus Rhythm ([1]; Prior Rate Control Drugs): 51% | Number of Pts Converted to Sinus Rhythm ([1]; Women): 22 | Pts (%) Converted to Sinus Rhythm ([1]; Women): 51% | Number of Pts Converted to Sinus Rhythm ([1]; age <65): 49 | Pts (%) Converted to Sinus Rhythm ([1]; age <65): 56% | Number of Pts Converted to Sinus Rhythm ([1]; age ≧65): 26 | Pts (%) Converted to Sinus Rhythm ([1]; age ≧65): 46% | drug-related Torsades de Pointes ([1]; in vivo): No cases | patients converted to SR ([1]; primary end-point group, AF 3 hr-7 days, 3 mg/kg then 2 mg/kg, within 90 min): 52% | AERP 400 Ave Δ ([2]; Dose Level 1): 3.3 ± 5.4% | AERP 400 Ave Δ (Change from Baseline) ([2]; Dose Level 1): 5.0 ± 9.0 ms | SNRT (A1 400) ([2]; Dose Level 1): 1114.4 ± 227.4 ms | SNRT (A1 600) ([2]; Dose Level 1): 1157.8 ± 238.3 ms | Wenckebach Cycle Length ([2]; Dose Level 1): 388.1 ± 94.4 ms | Diastolic BP ([2]; Dose Level 1, 2 mg/kg): 84 ± 12 mm Hg | HEART RATE ([2]; Dose Level 1, 2 mg/kg): 78 ± 11 bpm | Systolic BP ([2]; Dose Level 1, 2 mg/kg): 135 ± 15 mm Hg | AERP ([2]; Dose Level 1, 300 msec): 180.5 ± 15.5 | AERP ([2]; Dose Level 1, 400 msec): 195.0 ± 23.8 | VERP ([2]; Dose Level 1, 400 msec): 226.7 ± 16.4 | AH interval ([2]; Dose Level 1, 400 msec pacing): 134.2 ± 69.2 | HV interval ([2]; Dose Level 1, 400 msec pacing): 52.5 ± 13.6 | PA interval ([2]; Dose Level 1, 400 msec pacing): 61.8 ± 30.2 | PR interval ([2]; Dose Level 1, 400 msec pacing): 239.2 ± 76.7 | AERP ([2]; Dose Level 1, 600 msec): 219.5 ± 32.2 | VERP ([2]; Dose Level 1, 600 msec): 247.8 ± 22.0 | AH interval ([2]; Dose Level 1, 600 msec pacing): 113.8 ± 29.9 | HV interval ([2]; Dose Level 1, 600 msec pacing): 50.1 ± 12.6 | PA interval ([2]; Dose Level 1, 600 msec pacing): 64.0 ± 22.4 | PR interval ([2]; Dose Level 1, 600 msec pacing): 227.7 ± 45.3 | Atrial MAP50 ([2]; Dose Level 1, A1 200 msec): 116.4 ± 15.4 | Atrial MAP50 ([2]; Dose Level 1, A1 250 msec): 134.2 ± 18.4 | Atrial MAP50 ([2]; Dose Level 1, A1 300 msec): 139.5 ± 20.4 | Atrial MAP50 ([2]; Dose Level 1, A1 400 msec): 152.6 ± 19.7 | QRS ([2]; Dose Level 1, A1 400 msec): 87.0 ± 6.6 | QT ([2]; Dose Level 1, A1 400 msec): 325.4 ± 9.0 | Atrial MAP50 ([2]; Dose Level 1, A1 600 msec): 172.8 ± 31.9 | QRS ([2]; Dose Level 1, A1 600 msec): 89 ± 9 | QT ([2]; Dose Level 1, A1 600 msec): 363 ± 27 | QRS Ave Δ ([2]; Dose Level 1, V1 400): 7.6 ± 11.5% | QRS ([2]; Dose Level 1, V1 400 msec): 160.5 ± 23.0 | QT ([2]; Dose Level 1, V1 400 msec): 381.5 ± 25.2 | QRS ([2]; Dose Level 1, V1 600 msec): 169 ± 24 | QT ([2]; Dose Level 1, V1 600 msec): 433 ± 30 | AERP 400 Ave Δ ([2]; Dose Level 2): 14.7 ± 11.5 % | AERP 400 Ave Δ (Change from Baseline) ([2]; Dose Level 2): 24.4 ± 17.8 ms | AERP 600 Ave Δ ([2]; Dose Level 2): 16.9 ± 9.0 % | SNRT (A1 400) ([2]; Dose Level 2): 1047.1 ± 212.2 ms | SNRT (A1 600) ([2]; Dose Level 2): 1033.3 ± 247.8 ms | Wenckebach Cycle Length ([2]; Dose Level 2): 366.9 ± 53.7 ms | Diastolic BP ([2]; Dose Level 2, 4 mg/kg): 75 ± 9 mm Hg | HEART RATE ([2]; Dose Level 2, 4 mg/kg): 91 ± 19 bpm | Systolic BP ([2]; Dose Level 2, 4 mg/kg): 126 ± 15 mm Hg | AERP ([2]; Dose Level 2, 300 msec): 192.8 ± 20.2 | AERP ([2]; Dose Level 2, 400 msec): 206.7 ± 25.6 | VERP ([2]; Dose Level 2, 400 msec): 227.5 ± 16.3 | AH interval ([2]; Dose Level 2, 400 msec pacing): 147.0 ± 67.6 | HV interval ([2]; Dose Level 2, 400 msec pacing): 50.2 ± 8.4 | PA interval ([2]; Dose Level 2, 400 msec pacing): 75.8 ± 24.4 | PR interval ([2]; Dose Level 2, 400 msec pacing): 261.2 ± 60.4 | AERP ([2]; Dose Level 2, 600 msec): 227.9 ± 22.5 | VERP ([2]; Dose Level 2, 600 msec): 261.7 ± 16.3 | AH interval ([2]; Dose Level 2, 600 msec pacing): 101.7 ± 21.5 | HV interval ([2]; Dose Level 2, 600 msec pacing): 50.9 ± 7.0 | PA interval ([2]; Dose Level 2, 600 msec pacing): 69.1 ± 21.5 | PR interval ([2]; Dose Level 2, 600 msec pacing): 224.6 ± 18.8 | Atrial MAP50 ([2]; Dose Level 2, A1 200 msec): 124.0 | Atrial MAP50 ([2]; Dose Level 2, A1 250 msec): 130.0 ± 14.5 | Atrial MAP50 ([2]; Dose Level 2, A1 300 msec): 135.6 ± 20.4 | Atrial MAP50 ([2]; Dose Level 2, A1 400 msec): 143.7 ± 25.2 | QRS ([2]; Dose Level 2, A1 400 msec): 86.4 ± 9.0 | QT ([2]; Dose Level 2, A1 400 msec): 336.7 ± 27.8 | Atrial MAP50 ([2]; Dose Level 2, A1 600 msec): 165.5 ± 33.3 | QRS ([2]; Dose Level 2, A1 600 msec): 89 ± 8 | QT ([2]; Dose Level 2, A1 600 msec): 364 ± 20 | QRS ([2]; Dose Level 2, V1 400 msec): 157.3 ± 22.5 | QT ([2]; Dose Level 2, V1 400 msec): 376.3 ± 32.5 | QRS ([2]; Dose Level 2, V1 600 msec): 157 ± 15 | QT ([2]; Dose Level 2, V1 600 msec): 412 ± 30 | effect on ventricular refractoriness, repolarization or conduction ([2]; at the doses studied): no significant effect | conduction effect in the AV node, His Purkinje, and ventricular tissue ([2]; conclusion of study): small but significant conduction slowing effect | effect on atrial refractory periods ([2]; conclusion of study): dose-dependently prolongs | patients with a metallic taste in mouth ([2]; n=19, both dose levels): three | patients with a transient tingling sensation ([2]; n=19, both dose levels): four | patients with numbness in tongue ([2]; n=19, both dose levels): one | patients with transient hypotension ([2]; n=19, both dose levels): one | Plasma drug levels at 24 h post-infusion (below the limit of detection) ([3]; RSD-1, majority of patients): < 5 ng/mL | mean plasma levels at 24 h ([3]; RSD-2 group): 17 ng/mL | Mean peak plasma levels ([3]; patients that received both 0.5 and 1.0 mg/kg): 1.9 µg/mL | Mean peak plasma levels ([3]; patients that received both the 2.0 and 3.0 mg/kg infusions): 5.8 µg/mL | mean peak plasma levels at the end of infusion [3, 5]: 2.6 µg/mL | mean terminal elimination half life [3, 5]: 3.1 h | median plasma level at the time of AF conversion [3, 5]: 1.3 µg/mL
